Consider four compounds from patent US20230065014A1, “Nitro-Fatty Acid-Containing Microbubbles and Uses Therefor” (University of Pittsburgh-Of the Commonwealth System of …, priority 2020, published 2023).

For assay [1], the target named is T1, PPAR-γ (peroxisome proliferator activated receptor gamma) (Homo sapiens, UniProt P37231).
T1 sequence (P37231 1-505): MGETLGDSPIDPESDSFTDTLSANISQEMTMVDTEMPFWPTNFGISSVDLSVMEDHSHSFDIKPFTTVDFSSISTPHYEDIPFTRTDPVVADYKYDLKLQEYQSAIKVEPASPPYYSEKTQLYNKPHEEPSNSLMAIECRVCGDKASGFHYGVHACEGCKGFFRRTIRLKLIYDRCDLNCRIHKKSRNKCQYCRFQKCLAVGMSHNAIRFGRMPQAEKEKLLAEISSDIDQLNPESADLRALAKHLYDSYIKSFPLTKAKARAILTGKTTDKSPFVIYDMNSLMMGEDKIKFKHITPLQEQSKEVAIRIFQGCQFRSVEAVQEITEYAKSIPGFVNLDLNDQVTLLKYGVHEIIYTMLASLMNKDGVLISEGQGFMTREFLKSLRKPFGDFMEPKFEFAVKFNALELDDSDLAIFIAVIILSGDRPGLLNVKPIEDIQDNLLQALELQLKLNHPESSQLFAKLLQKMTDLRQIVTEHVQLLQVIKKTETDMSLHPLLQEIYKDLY
Particulars: as described in WO 2010/014889 A2; cited from earlier work.

Assay [2] deals with Bleomycin-treated 3 mo old C57Bl6 mice. As to the kind of experiment: Reversal of established fibrosis in bleomycin-treated mice. Format: in vivo. The note with it: 7.5 mg/kg oral, 2 additional weeks. The text has this:
Nitroalkenes can reverse established fibrosis.

Assay [3] deals with long-term NASH diet-induced liver damage. The note with it: NASH diet mice; cited from earlier work.
Another assay has as its system hepatocytes. The note with it: in vitro; cited from earlier work.
The next assay relates to human stellate cells. The note with it: in vitro; cited from earlier work.
Assay [4] relates to fibrotic vascular and tissue remodeling in heart, liver and lung. The note with it: Ang II, hypoxia and obesity models; cited from earlier work.

`CCCCCC=CC/C(=C\CCCCCCCC(=O)O)[N+](=O)[O-]` (stereo in doubt) [10-nitro linoleic acid, (9E,12Z)-10-nitrooctadeca-9,12-dienoic acid]: in assay [1], the “activation of the PPAR-γ receptor” value is “potent, selective activators”.
For `CCCCC/C=C(\C/C=C\CCCCCCCC(=O)O)[N+](=O)[O-]` [12-nitro linoleic acid, 12-nitrolinoleic acid], in assay [1], the “activation of the PPAR-γ receptor” value was “potent, selective activators”.
Regarding NO2-oleic acid, in assay [2], the Ashcroft scoring entry is “decreased collagen deposition”; the “Masson's trichrome and αSMA staining” value is “resolution of pathologic remodeling”; the “qRT-PCR of TGFβ, Col1A1, αSMA, vimentin, MMP7 and E-cadherin expression” value is on record as “inhibition of these pro-fibrotic indices”; the reversal of fibrosis result is on record as “significant reversal of fibrosis”. In addition, in assay [3], the “RNA-sequencing analysis of liver tissue” value was “inflammation and fibrosis as major pathways suppressed”; the “SREBPI proteolytic activation and subsequent lipogenesis gene expression” value is “inhibition of SREBPI proteolytic activation and subsequent lipogenesis gene expression”; the “body composition and energy metabolism (CLAMS and NMR-based analysis)” value was “improved body composition and energy metabolism”; the “hepatic triglyceride (TG) accumulation” value is recorded as “inhibiting hepatic triglyceride (TG) accumulation”. For the same compound, the “liver steatosis and fibrosis by photoacoustic-ultrasound imaging” value in assay [3] was “robust inhibition of liver steatosis and fibrosis”. In the assay on hepatocytes, the “TG biosynthesis and accumulation” value was “inhibited TG biosynthesis and accumulation”. The fibrogenesis entry with human stellate cells was “inhibited fibrogenesis”. Further, in assay [1], the “activation of the PPAR-γ receptor” value is “nanomolar activators”. For the same compound, in assay [4], the “fibrotic vascular and tissue remodeling” value is “inhibit fibrotic vascular and tissue remodeling”.
For the compound Nitro-linoleic acid, the “activation of the PPAR-γ receptor” value in assay [1] is on record as “nanomolar activators”. The “fibrotic vascular and tissue remodeling” value in assay [4] is “inhibit fibrotic vascular and tissue remodeling”.
